Results on 14 compounds are retold here after patent US20150291598A1 (NOVARTIS AG, priority 2012, published 2015).

Bounds are passed on as bounds.

For one experiment, the system named is P. falciparum (NF54 or 3D7 strain). Description: Assay for P. falciparum proliferation in infected human blood cells (SYBR Green). It is filed as cell-based, Plasmodium falciparum. Particulars: Plasmodium falciparum, Erythrocyte, 72 h, NF54 or 3D7 infected human erythrocytes, 72 hours; read-out: EC50 (nM), inhibitory efficacy in delaying P. falciparum proliferation in infected human blood cells. The method, then: Assay for P. falciparum Proliferation in Infected Human Blood Cells
Compounds of the invention can be assayed to measure their capacity to inhibit proliferation of P. falciparum parasitemia in infected red blood cells. This parasite proliferation assay measures the increase in parasite DNA content using a DNA intercalating dye, SYBR Green® (INVITROGEN®) which has a high affinity for double stranded DNA.
NF54 or 3D7 P. falciparum strain is grown in complete culturing media until parasitemia reaches 3% to 8% with O+ human erythrocytes. […] 20 μl of screening media is dispensed into 384 well assay plates. 50 nl of compounds of the invention (in DMSO), including antimalarial controls (mefloquine, pyrimethamine and artemisinin), are then transferred into the assay plates, as well as DMSO alone to serve as a negative control for inhibition. Then 30 μl of a suspension of a NF54 or 3D7 P. falciparum infected erythrocytes in screening media is dispensed into the assay plates such that the final hematocrit is 2.5% with a final parasitemia of 0.3%. The plates are placed in a 37° C. incubator for 72 hours in a low oxygen environment containing 93% N2, 4% CO2, and 3% O2 gas mixture. 10 μl of lysis buffer (saponin, triton-X, EDTA) containing a 10× solution of SYBR Green I® in RPMI media is dispensed into the plates. The plates are lidded and kept at room temperature overnight for the lysis of the infected red blood cells. The fluorescence intensity is measured (excitation […], emission 530 nm) using the Envision™ system (Perkin Elmer).
Consider `CN(C(=O)c1cn2c(-c3ccc(C(F)(F)F)cc3)cnc2cn1)c1ccc(F)cn1` [Compound 63, N-(5-fluoropyridin-2-yl)-N-methyl-3-[4-(trifluoromethyl)phenyl]imidazo[1,2-a]pyrazine-6-carboxamide], for which the EC50 is 387 nM.

For the compound `CN(Cc1cn2c(-c3ccc(OC(F)F)cc3)cnc2cn1)c1ccc(Cl)cc1` [Compound 64, 4-chloro-N-({3-[4-(difluoromethoxy)phenyl]imidazo[1,2-a]pyrazin-6-yl}methyl)-N-methylaniline], the EC50 was found to be 116 nM. Regarding `COc1ccc(-c2cnc3cnc(C(=O)N(C)c4ccc(C#N)cc4)cn23)c(F)c1` [Compound 65, N-(4-cyanophenyl)-3-(2-fluoro-4-methoxyphenyl)-N-methylimidazo[1,2-a]pyrazine-6-carboxamide], the EC50 worked out at 354 nM.

Take `CN(C(=O)c1cn2c(-c3ccc(C(F)(F)F)cc3)cnc2cn1)c1cncc(F)c1` [Compound 66, N-(5-fluoropyridin-3-yl)-N-methyl-3-[4-(trifluoromethyl)phenyl]imidazo[1,2-a]pyrazine-6-carboxamide]: the EC50 is 5000 nM.

Regarding `COc1ccc(-c2cnc3cnc(C(=O)N(C)c4ccc(C#N)cc4)cn23)cc1` [Compound 67, N-(4-cyanophenyl)-3-(4-methoxyphenyl)-N-methylimidazo[1,2-a]pyrazine-6-carboxamide], the EC50 was determined as 168 nM.

Regarding `CN(C(=O)c1cn2c(-c3ccc(C(F)(F)F)cc3)cnc2cn1)c1ccc(-c2nnn(C)n2)cc1` [Compound 68, N-methyl-N-[4-(2-methyl-2H-1,2,3,4-tetrazol-5-yl)phenyl]-3-[4-(trifluoromethyl)phenyl]imidazo[1,2-a]pyrazine-6-carboxamide], the EC50 was over 10000 nM. As to `COc1ccc(-c2cnc3cnc(C(=O)N(C)c4ccc(F)cc4)cn23)cc1` [Compound 69, N-(4-fluorophenyl)-3-(4-methoxyphenyl)-N-methylimidazo[1,2-a]pyrazine-6-carboxamide], the EC50 stood at 85 nM. Regarding `CN(C(=O)c1cn2c(-c3ccc(Cl)cc3)cnc2cn1)c1ccc(Cl)cc1Cl` [Compound 70, 3-(4-chlorophenyl)-N-(2,4-dichlorophenyl)-N-methylimidazo[1,2-a]pyrazine-6-carboxamide], the EC50 came to 230 nM. Consider `CN(C(=O)c1cn2c(-c3ccc(Cl)c(F)c3)cnc2cn1)c1ccc(C#N)cc1` [Compound 71, 3-(4-chloro-3-fluorophenyl)-N-(4-cyanophenyl)-N-methylimidazo[1,2-a]pyrazine-6-carboxamide], for which the EC50 stood at 1300 nM.

On to `CN(C)CCN(C(=O)c1cn2c(-c3ccc(C(F)(F)F)cc3)cnc2cn1)c1ccc(C#N)cc1` [Compound 72, N-(4-cyanophenyl)-N-[2-(dimethylamino)ethyl]-3-[4-(trifluoromethyl)phenyl]imidazo[1,2-a]pyrazine-6-carboxamide], for which the EC50 stood at 439 nM. Take `CN(C(=O)c1cn2c(-c3ccc(C(F)(F)F)cc3)cnc2cn1)c1ccccc1Cl` [Compound 73, N-(2-chlorophenyl)-N-methyl-3-[4-(trifluoromethyl)phenyl]imidazo[1,2-a]pyrazine-6-carboxamide]: the EC50 stood at 624 nM. As for `CN(C(=O)c1cn2c(-c3ccc(-c4nnc(N)s4)cc3)cnc2cn1)c1ccc(C#N)cc1` [Compound 74, 3-[4-(5-amino-1,3,4-thiadiazol-2-yl)phenyl]-N-(4-cyanophenyl)-N-methylimidazo[1,2-a]pyrazine-6-carboxamide], the EC50 stood at 24 nM. Still for that read-out and setting: under `CN(C(=O)c1cn2c(-c3ccc(C(C)(F)F)cc3)cnc2cn1)c1ccc(C#N)cc1` [Compound 75, N-(4-cyanophenyl)-3-[4-(1,1-difluoroethyl)phenyl]-N-methylimidazo[1,2-a]pyrazine-6-carboxamide] stands 37 nM. As to `CN(C)c1ccc(-c2cnc3cnc(C(=O)N(C)c4ccc(C#N)cc4)cn23)cc1` [Compound 77, N-(4-cyanophenyl)-3-[4-(dimethylamino)phenyl]-N-methylimidazo[1,2-a]pyrazine-6-carboxamide], the EC50 is 116 nM.

Still in this experiment, the particulars now being: Plasmodium falciparum, Erythrocyte, infected human red blood cells; read-out: EC50, P. falciparum Proliferation Assay.
In the case of `CN(C)CCN(C(=O)c1cn2c(-c3ccc(C(F)(F)F)cc3)cnc2cn1)c1ccc(C#N)cc1` [Compound 72, N-(4-cyanophenyl)-N-[2-(dimethylamino)ethyl]-3-[4-(trifluoromethyl)phenyl]imidazo[1,2-a]pyrazine-6-carboxamide], the EC50 is under 50 nM.
